Experiments:
Type in all cases: cell-based
[1] = system: Gaeumannomyces graminis; test: Gaeumannomyces graminis / liquid culture (take-all of cereals); details: growth inhibition photometrically 4-5 days after application, compared to untreated control
Procedure: (§1) 6. Gaeumannomyces Graminis/Liquid Culture (Take-all of Cereals) Mycelial fragments of the fungus from cryogenic storage were directly mixed into nutrient broth (PDB potato dextrose broth). After placing a (DMSO) solution of test compound into a microtiter plate (96-well format), the nutrient broth containing the fungal spores is added. The test plates are incubated at 24° C. and the inhibition of growth is determined photometrically 4-5 days after application.

[2] = system: Monographella nivalis (Microdochium nivale); test: Monographella nivalis (Microdochium nivale) / liquid culture (foot rot cereals); details: growth inhibition photometrically 4-5 days after application, compared to untreated control
Procedure: as §1, with “8. Monographella nivalis (Microdochium nivale)/Liquid” for “6. Gaeumannomyces Graminis/Liquid”, “(Foot Rot” for “(Take-all of”, “Conidia” for “Mycelial fragments”, “are” for “were”

[3] = system: Pythium ultimum; test: Pythium ultimum / liquid culture (seedling damping off); details: Globisporangium ultimum, growth inhibition photometrically 2-3 days after application, compared to untreated control
Procedure: 15. Pythium ultimum/Liquid Culture (Seedling Damping Off) Mycelia fragments and oospores of a newly grown liquid culture of the fungus are directly mixed into nutrient broth (PDB potato dextrose broth). After placing a (DMSO) solution of test compound into a microtiter plate (96-well format), the nutrient broth containing the fungal mycelia/spore mixture is added. The test plates are incubated at 24° C. and the inhibition of growth is determined photometrically 2-3 days after application.

[4] = system: Glomerella lagenarium (Colletotrichum lagenarium); test: Glomerella lagenarium (Colletotrichum lagenarium) / liquid culture (anthracnose); details: Colletotrichum orbiculare, growth inhibition photometrically 3-4 days after application, compared to untreated control
Procedure: as §1, with “3. Glomerella lagenarium (Colletotrichum lagenarium)/Liquid” for “6. Gaeumannomyces Graminis/Liquid”, “(Anthracnose) Conidia” for “(Take-all of Cereals) Mycelial fragments”, “are” for “were”, “measured” for “determined”, “3-4” for “4-5”

[5] = system: Mycosphaerella graminicola (Septoria tritici); test: Mycosphaerella graminicola (Septoria tritici) / liquid culture (Septoria blotch); details: Zymoseptoria tritici, growth inhibition photometrically 4-5 days after application, compared to untreated control
Procedure: as §1, with “18. Mycosphaerella graminicola (Septoria tritici)/Liquid” for “6. Gaeumannomyces Graminis/Liquid”, “(Septoria Blotch) Conidia” for “(Take-all of Cereals) Mycelial fragments”, “are” for “were”

Measured: inhibition of growth at 20 ppm

COc1c(C(=O)OCC(F)(F)F)ccc2c1B(O)OC2 [Compound 10, 2,2,2-trifluoroethyl 1-hydroxy-7-methoxy-3H-2,1-benzoxaborole-6-carboxylate]
≥ 80%: all assays above

COc1c(C(=O)OCCOc2ccccc2C)ccc2c1B(O)OC2 [Compound 82, 2-(2-methylphenoxy)ethyl 1-hydroxy-7-methoxy-3H-2,1-benzoxaborole-6-carboxylate]
≥ 80%: all assays above

CCCC1OCC(C)(COC(=O)c2ccc3c(c2OC)B(O)OC3)CO1 (stereo not drawn) [Compound 98, (5-methyl-2-propyl-1,3-dioxan-5-yl)methyl 1-hydroxy-7-methoxy-3H-2,1-benzoxaborole-6-carboxylate]
≥ 80%: [1] | [2] | [3]

COc1c(C(=O)OC2CC=CC2)ccc2c1B(O)OC2 [Compound 104, cyclopent-3-en-1-yl 1-hydroxy-7-methoxy-3H-2,1-benzoxaborole-6-carboxylate]
≥ 80%: all assays above

COc1c(C(=O)OCc2cc(C)cc(C)c2)ccc2c1B(O)OC2 [Compound 116, (3,5-dimethylphenyl)methyl 1-hydroxy-7-methoxy-3H-2,1-benzoxaborole-6-carboxylate]
≥ 80%: [1] | [2] | [3]

COc1c(C(=O)OCC2CC2C)ccc2c1B(O)OC2 (stereo not drawn) [Compound 118, (2-methylcyclopropyl)methyl 1-hydroxy-7-methoxy-3H-2,1-benzoxaborole-6-carboxylate]
≥ 80%: all assays above

C#CC(CC)OC(=O)c1ccc2c(c1OC)B(O)OC2 (stereo not drawn) [Compound 121, 1-ethylprop-2-ynyl 1-hydroxy-7-methoxy-3H-2,1-benzoxaborole-6-carboxylate]
not listed: [5]
≥ 80%: all other assays above

CCOC(=O)[C@H](C)OC(=O)c1ccc2c(c1OC)B(O)OC2 [Compound 125, [(1S)-2-ethoxy-1-methyl-2-oxo-ethyl] 1-hydroxy-7-methoxy-3H-2,1-benzoxaborole-6-carboxylate]
≥ 80%: [1] | [2] | [3]

COc1ccc(COC(=O)c2ccc3c(c2OC)B(O)OC3)cc1 [Compound 127, (4-methoxyphenyl)methyl 1-hydroxy-7-methoxy-3H-2,1-benzoxaborole-6-carboxylate]
not listed: [5]
≥ 80%: all other assays above

COc1ccccc1COC(=O)c1ccc2c(c1OC)B(O)OC2 [Compound 128, (2-methoxyphenyl)methyl 1-hydroxy-7-methoxy-3H-2,1-benzoxaborole-6-carboxylate]
≥ 80%: [1] | [2] | [3]

COc1c(C(=O)OCCC(C)C)ccc2c1B(O)OC2 [Compound 129, isopentyl 1-hydroxy-7-methoxy-3H-2,1-benzoxaborole-6-carboxylate]
≥ 80%: all assays above

From patent US20180244699A1, “1-HYDROXY-3H-2,1-BENZOXABOROLE DERIVATIVES AND THEIR USE AS MICROBIOCIDES” (Syngenta Participations AG, priority 2015, published 2018)
